Literature values in publication PMC2714898 (European Journal of Clinical Pharmacology, 2009).

Row | half-life | elimination half-life (t½) (averages, after oral AS) | SMILES
1 | 2.5 to 18.2 days |  | CCNCc1cc(Nc2ccnc3cc(Cl)ccc23)ccc1O [Desethylamodiaquine (DEAQ), N-desethylamodiaquine]
2 |  | 39 to 155 min | C[C@H]1[C@@H](O)O[C@@H]2O[C@@]3(C)CC[C@H]4[C@H](C)CC[C@@H]1[C@@]24OO3 [Dihydroartemisinin (DHA), dihydroartemisinin]
